Measured values: patent US20040259861A1, “Medicament inhibiting sodium/calcium exchange system” (priority 2001, published 2004)

Target: T1, sodium/calcium exchanger (Rattus norvegicus, UniProt Q01728)
T1 construct: The heart of the rat was excised and perfused with Krebs buffer solution; from tissue; host or cells: isolated Langendorff-perfused rat heart
Experiment: Langendorff-perfused rat heart, monensin treatment plus ischemia/reperfusion: ventricular total calcium content and recovery in contractile tension
Settings: for Calcium Content: isolated rat heart, monensin 5 μM 10 min, ischemia 15 min, reperfusion 30 min; for effect on decreased recovery in contractile tension (in words) / effect on increased ventricular calcium content (in words): monensin treatment and ischemia/reperfusion, rat heart
Procedure: The heart of the rat was excised and perfused with Krebs buffer solution (in mM: NaCl 119, KCl 4.6, MgSO4.7H2O 1.2, CaCl2.2H2O 1.3, NaHCO3 25, KH2PO4 1.2, glucose 11; pH 7.4, 37° C.) according to Langendorff method. A thread attached to the apex of the heart was connected to a tension transducer to determine contractile tension. The heart was perfused with a perfusion solution containing monensin (5 μ M; sodium ionophore) for 10 min and then ischemia was induced by a cessation of coronary flow (for 15 min). After reperfusion for 30 min, the heart was liquefied in nitric acid, and ventricular total calcium content was determined by atomic absorption analysis. Contractile tension was measured during the experiment, and recovery in contractile tension at 30 min of reperfusion related to its pre-value was used as an index of cardiac contraction.

| Calcium Content (10^−5 M) | effect on decreased recovery in contractile tension (in words) | effect on increased ventricular calcium content (in words) | Calcium Content (10^−3 M) | Calcium Content (10^−4 M) | SMILES | Calcium Content (10^−6 M) | Calcium Content (10^−7 M) | effect on increased ventricular calcium content (in words) (listed as The medicament of the present invention, monohydrate) | effect on increased ventricular calcium content (in words) (listed as the medicament of the present invention, monohydrate) |
| --- | --- | --- | --- | --- | --- | --- | --- | --- | --- |
| 5.89 ± 0.22 µmol/g | failed to exhibit these effects | failed to exhibit these effects | – | – | COc1ccc([C@@H]2Sc3ccccc3N(CCN(C)C)C(=O)[C@@H]2OC(C)=O)cc1 [Diltiazem] | 5.75 ± 0.16 µmol/g | – | – | – |
| – | failed to exhibit these effects | failed to exhibit these effects | 4.26 ± 0.40 µmol/g | 5.30 ± 0.25 µmol/g | N=C(N)NC(=O)c1nc(Cl)c(N)nc1N [Amiloride] | – | – | – | – |

| SMILES | Calcium Content (10^−5 M) | effect on decreased recovery in contractile tension (in words) | effect on increased ventricular calcium content (in words) | Calcium Content (10^−3 M) | Calcium Content (10^−4 M) | Calcium Content (10^−6 M) | Calcium Content (10^−7 M) | effect on increased ventricular calcium content (in words) (listed as The medicament of the present invention, monohydrate) | effect on increased ventricular calcium content (in words) (listed as the medicament of the present invention, monohydrate) |
| --- | --- | --- | --- | --- | --- | --- | --- | --- | --- |
| Cc1ccc(N2CCNCC2)c(S(=O)(=O)O)c1.O [Compound of the Present Invention, 5-methyl-2-(1-piperazinyl)benzenesulfonic acid monohydrate] | – | improved | – | – | – | 2.72 ± 0.18 µmol/g | 3.72 ± 0.16 µmol/g | improved | effective in reducing increase in ventricular calcium content |
